What is called viability is a read-out of living cells in per cent, often relative to untreated cells.

79 molecules from article PMC12040169 (PLOS Biology, 2025) can be followed below.

This data set in a line: in vitro. The conditions noted are these: human, hela cells, % viability.

Regarding `O=C(O)CCSCc1ccc([N+](=O)[O-])cc1` [CBK262359], the viability at 28.5 h, 10 µM came to 103%.

Consider `Cc1ccsc1CN1CCCCC1CO` (stereo not shown) [CBK026348], for which the viability at 28.5 h, 10 µM was 107%.

As to `CC(C)c1ccc(S(=O)(=O)NCc2csc3ccccc23)cc1` [CBK044662], the viability at 28.5 h, 10 µM worked out at 96.6%.

Regarding `CCOC(=O)c1cnc(N2CCOCC2)nc1NCCc1c[nH]c2ccccc12` [CBK093605], the viability at 28.5 h, 10 µM was found to be 106%.

With `O=C1Nc2ccccc2C12CC(c1ccccc1Cl)=NN2` (stereo not shown) [CBK288004], the viability at 28.5 h, 10 µM is 111%.

On to `CCOC(=O)c1cnc(SCc2cccc([N+](=O)[O-])c2)nc1N` [CBK266449], for which the viability at 28.5 h, 10 µM stood at 95%.

With `c1ccc(OCCN2CCCN(c3nccc(OCC4COc5ccccc5O4)n3)CC2)cc1` (stereo not shown) [CBK083980], the viability at 28.5 h, 10 µM was 94%.

On to `CC(C)C(=O)N1CCC(c2[nH]ncc2-c2ccncc2)CC1` [CBK284237], for which the viability at 28.5 h, 10 µM was 79.6%.

In the case of `c1csc(N2CCCN(c3nccn4cnnc34)CC2)n1` [CBK305190], the viability at 28.5 h, 10 µM was determined as 82.4%.

On to `OCc1ccc(-c2cc(NCc3cccs3)n3nccc3n2)cc1` [CBK037046], for which the viability at 28.5 h, 10 µM was determined as 106%.

Take `CC(=O)NCC12CC3CC(C1)CC(C(=O)O)(C3)C2` [CBK286768]: the viability at 28.5 h, 10 µM turned out to be 93.8%.

With `Cc1noc(C)c1C(=O)N1CCN(Cc2ccccc2)CC1` [CBK200173], the viability at 28.5 h, 10 µM was found to be 90.9%.

On to `N#Cc1sc2nc(C34CC5CC(CC(C5)C3)C4)ccc2c1N` [CBK267455], for which the viability at 28.5 h, 10 µM was 93.8%.

As for `C[C@H]1[C@@H]2[C@@H](O)C([C@H](C)C(=O)NCc3ccccn3)CC[C@@]2(C)CC[C@@H]1NC(=O)C1CC1` (stereo partly shown) [CBK289445], the viability at 28.5 h, 10 µM turned out to be 97.2%.

Consider `CCN1CC2(CCN(CCCC#N)CC2)c2ccccc21` [CBK136995], for which the viability at 28.5 h, 10 µM stood at 91.1%.

In the case of `O=C1CC2(CCN(C(=O)C3CCCC3)CC2)Oc2ccccc21` [CBK283485], the viability at 28.5 h, 10 µM was 94.9%.

As for `CN(C)CCN(C)c1cccc(-c2cccc(OC(F)(F)F)c2)n1` [CBK037020], the viability at 28.5 h, 10 µM was found to be 102%.

As to `O=C(NCCCN1CCCC1=O)c1cnc(-c2ccc(Cl)cc2)c(-c2ccncc2)c1` [CBK037545], the viability at 28.5 h, 10 µM came out at 74.8%.

For `O=C(O)C1CCN(S(=O)(=O)c2ccccc2[N+](=O)[O-])CC1` [CBK265267], the viability at 28.5 h, 10 µM came out at 98.6%.

Take `CN(Cc1ccccc1)C(=O)CCNS(=O)(=O)c1ccccc1` [CBK268585]: the viability at 28.5 h, 10 µM was found to be 103%.

Turning to `c1ccc2c(c1)oc1cccc(-c3cc(NCCc4c[nH]cn4)ncn3)c12` [CBK037708], the viability at 28.5 h, 10 µM turned out to be 94.6%.

Consider `CCN1C(=O)C2(CC(=O)N(CCCCC(C)C)C2=O)c2cc(C)ccc21` (stereo not shown) [CBK075173], for which the viability at 28.5 h, 10 µM turned out to be 103%.

For the molecule `Cc1csc(C(Cc2ccsc2)NC(=O)CN2CCCC2=O)n1` (stereo not shown) [CBK285046], the viability at 28.5 h, 10 µM worked out at 81.9%.

Take `Cc1ccc(-c2nnc(N3CCN(C(=O)CSc4nc[nH]n4)CC3)c3ccccc23)cc1` [CBK266652]: the viability at 28.5 h, 10 µM was determined as 107%.

As for `O=C(Cn1cccc(C(=O)Nc2cc(F)ccc2N2CCCC2)c1=O)NC1CCCCC1` [CBK286008], the viability at 28.5 h, 10 µM amounted to 88.9%.

In the case of `CCCC(=O)NC(c1ccc(OC)c(OC)c1)c1c(O)ccc2ccccc12` (stereo not shown) [CBK263269], the viability at 28.5 h, 10 µM was 95.2%.

For the molecule `O=C(N/N=C1/CN2CCC1CC2)c1cccc(O)c1` [CBK262188C], the viability at 28.5 h, 10 µM (bulk resorufin, single well) was found to be 93.5%.

Consider `O=C1NCCN(C(=O)c2[nH]nc3c2CCCCC3)C1Cc1ccccc1-c1ccc(F)cc1` (stereo not shown) [CBK285831], for which the viability at 28.5 h, 10 µM is 98.1%.

As for `NC(=O)c1cccnc1-c1nc2ccccc2s1` [CBK287930], the viability at 28.5 h, 10 µM was found to be 80%.

With `Cc1c(Cl)cccc1N1CCN(S(=O)(=O)CC23CCC(CC2=O)C3(C)C)CC1` (stereo not shown) [CBK269257], the viability at 28.5 h, 10 µM is 96.1%.

With `O=C(NCCCc1ccc(Cl)cc1)c1cc2c([nH]c1=O)CCC2` [CBK281560], the viability at 28.5 h, 10 µM was found to be 89%.

In the case of `C=CCNCc1cc2c(C)nn(-c3ccc(F)cc3)c2[nH]c1=O` [CBK283117], the viability at 28.5 h, 10 µM came to 111%.

As to `Cn1cc(-c2nc(C3CCCCCN3C(=O)c3cccnc3)no2)cn1` (stereo not shown) [CBK305387], the viability at 28.5 h, 10 µM was determined as 87.9%.

As for `O=c1[nH]cc([C@H]2C[C@@H](O)[C@@H](CO)O2)c(=O)[nH]1` [CBK201158], the viability at 28.5 h, 10 µM stood at 95.4%.

Consider `COc1ccccc1-c1cnc(N)c(N[C@@H](C)c2ccccc2)n1` [CBK063721], for which the viability at 28.5 h, 10 µM came to 107%.

Consider `c1cnc2[nH]c([C@H]3CCCO3)c(CN3CCCCC3)c2c1` [CBK282284], for which the viability at 28.5 h, 10 µM is 87.7%.

For `CCOc1cc(C(c2c[nH]c3ccccc23)c2c[nH]c3ccccc23)ccc1OCC(=O)O` [CBK264450], the viability at 28.5 h, 10 µM was determined as 97.1%.

`COc1ccc([C@@]23CC[C@@H](CNC(=O)c4ccc(C(F)(F)F)cc4)C[C@@H]2N(C)CC3)cc1OC` [CBK042195]: the viability at 28.5 h, 10 µM came out at 107%.

With `N#Cc1ccc(CN2C[C@@H]3OCC(=O)N[C@@H]3C2)cc1` [CBK289261], the viability at 28.5 h, 10 µM worked out at 103%.

With `Cc1ncc(C(O)c2ccc(Cl)cc2)c2c1OC(C)(C)OC2` (stereo not shown) [CBK010749], the viability at 28.5 h, 10 µM turned out to be 111%.

As for `Cc1cc(C)n(CC(=O)N2CCNCC2c2cccc(Cl)c2)n1` (stereo not shown) [CBK304116], the viability at 28.5 h, 10 µM was found to be 92.7%.

Regarding `CCCCC1(COC(C)=O)OC(=O)Nc2ccc(Br)cc21` (stereo not shown) [CBK010195], the viability at 28.5 h, 10 µM was 91.1%.

Regarding `CCNC(=O)C1(Cc2ccc(-c3cccs3)cc2)CCN(C(=O)c2ccccc2)CC1` [CBK285794], the viability at 28.5 h, 10 µM was 94.5%.

With `COc1cccc(N2C(=O)CC(N3CCN(Cc4ccc5c(c4)OCO5)CC3)C2=O)c1` (stereo not shown) [CBK074411], the viability at 28.5 h, 10 µM worked out at 93.1%.

For the molecule `CSc1nc(NN2C(=O)c3ccccc3C2=O)c2c3c(sc2n1)COC(C)(C)C3` [CBK268758], the viability at 28.5 h, 10 µM is 85.6%.

On to `Cc1ccc(S(=O)(=O)c2cc3c(=O)n4ccccc4nc3n(CCN3CCOCC3)c2=N)cc1` [CBK265637], for which the viability at 28.5 h, 10 µM was 80.3%.

`Cc1cccc(OCCn2cncc2-c2cnn(C)c2)c1C` [CBK281497]: the viability at 28.5 h, 10 µM came out at 99.5%.

Consider `CCCCN(C)C(=O)Cn1nc(C)c2ccccc2c1=O` [CBK305050], for which the viability at 28.5 h, 10 µM worked out at 81.4%.

In the case of `COc1cccc(C(=O)NCCC(=O)N2CCc3ccccc3C2)c1` [CBK307575], the viability at 28.5 h, 10 µM came to 84.3%.

`COc1cc(-c2ccc3c(c2)OC2(CCNCC2)O3)ccn1` [CBK091454]: the viability at 28.5 h, 10 µM (bulk resorufin, single well) was 106%.

Take `Cc1c(C(C)NCC(O)COc2ccc(C#N)cc2)cnn1C` (stereo not shown) [CBK304881]: the viability at 28.5 h, 10 µM came out at 97.5%.

Consider `Cn1cc(C(=O)N2CCCC3(C/C=C/COc4ccccc4C(=O)NCCNC3=O)C2)cn1` (stereo not shown) [CBK292102], for which the viability at 28.5 h, 10 µM stood at 96.4%.

Regarding `CCn1c(CC2CCN(C(=O)CCn3nnnc3C)CC2)nn(C)c1=O` [CBK307400], the viability at 28.5 h, 10 µM was found to be 104%.

Take `CC(C)n1nccc1C(=O)NCC(c1ccc(F)cc1)N1CCCC1` (stereo not shown) [CBK283025]: the viability at 28.5 h, 10 µM worked out at 87.3%.

As to `c1ccc(N2CCN(c3cncc(-c4cccs4)n3)CC2)nc1` [CBK065502], the viability at 28.5 h, 10 µM was determined as 102%.

In the case of `Cc1ccc(C2(CN3CCN(Cc4cnn(C)c4)CC3)CC2)cc1` [CBK282480], the viability at 28.5 h, 10 µM was determined as 96.3%.

As to `COc1ccc(CCC(=O)N2CCCC2c2ccc(Cc3ccccc3F)cn2)cc1` (stereo not shown) [CBK285992], the viability at 28.5 h, 10 µM stood at 94.2%.

Turning to `Cc1oc(-c2ccccc2)nc1C(=O)N1CCCN(C)CC1` [CBK073940C], the viability at 28.5 h, 10 µM stood at 105%.

As for `CCC(C)NC(=O)C1(Cc2cccc(-c3ccc(OC)cc3)c2)CCOCC1` (stereo not shown) [CBK286513], the viability at 28.5 h, 10 µM stood at 94.9%.

Take `O=C(c1c[nH]c2ccccc12)C(O)C(c1ccccc1)N1CCOCC1` (stereo not shown) [CBK267802]: the viability at 28.5 h, 10 µM was found to be 95.4%.

In the case of `COc1c(C)cccc1C(=O)NC(=S)Nc1sc2c(c1C(N)=O)CCC2` [CBK265587], the viability at 28.5 h, 10 µM was 84.4%.

On to `Cc1cc(NC(=O)CCn2c(C(F)F)cc3cccnc32)nn1C` [CBK285071], for which the viability at 28.5 h, 10 µM is 90.2%.

Consider `O[C@@H]1C[C@@H](c2nc(-c3ccncc3)no2)N(Cc2ccc(F)cc2)C1` [CBK288838], for which the viability at 28.5 h, 10 µM turned out to be 94.3%.

As for `CC1CCCCN1C(=O)Cn1c(C2CCOCC2)cc2cccnc21` (stereo not shown) [CBK284675], the viability at 28.5 h, 10 µM is 97.7%.

Consider `Cn1c2ccccc2n2c(SCc3nc4ccc([N+](=O)[O-])cc4[nH]3)nnc12` [CBK266853], for which the viability at 28.5 h, 10 µM came to 88.6%.

Regarding `Cc1cc2occ(CC(=O)NCC(C)n3cncn3)c2cc1C` (stereo not shown) [CBK282614], the viability at 28.5 h, 10 µM was 101%.

Turning to `Oc1n[nH]c(CSCc2ccccc2Cl)n1` [CBK267427], the viability at 28.5 h, 10 µM came to 87.6%.

As to `COc1ccc(CCOc2nccnc2-c2ccc(OC(F)(F)F)cc2)cc1` [CBK106846], the viability at 28.5 h, 10 µM was determined as 109%.

As to `Cc1cnn(C(C)C(=O)N2CCc3c(nc(N(C)C)nc3N(C)C)C2)c1` (stereo not shown) [CBK307556], the viability at 28.5 h, 10 µM came out at 109%.

As to `CCn1cc(-c2cncn2CCCN2CCCCC2)cn1` [CBK281767], the viability at 28.5 h, 10 µM was 82.9%.

As for `O=C(c1coc(COc2cccc(F)c2)n1)N1CC(n2cccn2)C1` [CBK306842], the viability at 28.5 h, 10 µM amounted to 77.2%.

On to `CS(=O)(=O)NC1CCCN(c2nc(-c3ccsc3)nc3ccccc23)C1` (stereo not shown) [CBK305623], for which the viability at 28.5 h, 10 µM was determined as 99.1%.

Take `CN1CCC(N2CCN(C(=O)NCc3cccnc3)CC2)CC1` [CBK155889]: the viability at 28.5 h, 10 µM was 89.2%.

`Cn1cc(C2CCCCCN2C(=O)c2cc(C3CC3)on2)cn1` (stereo not shown) [CBK285301]: the viability at 28.5 h, 10 µM turned out to be 104%.

`O=c1c2c([nH]c3nc(NCc4ccc(OCc5ccccc5)cc4)nn13)CCC2` [CBK268044]: the viability at 28.5 h, 10 µM was found to be 96.9%.

As to `COc1cc(OC)c(CN(C)CCN(C)C)cc1Br` [CBK021255], the viability at 28.5 h, 10 µM amounted to 88.6%.

As to `Cc1sc2nc(SCC(=O)Nc3ccc(S(N)(=O)=O)cc3)n(-c3ccccc3)c(=O)c2c1C` [CBK266600], the viability at 28.5 h, 10 µM worked out at 108%.

Take `O=C(CSc1nc2cccnc2[nH]1)Nc1cccc(F)c1` [CBK270113]: the viability at 28.5 h, 10 µM came to 89.3%.

For the molecule `CCOC(=O)c1c(C)oc2ccc(O)c(CN3CCCCC3)c12` [CBK263838C], the viability at 28.5 h, 10 µM is 103%.
